Data from patent US7399869B2, “Fibroblast activation protein inhibitor compounds and methods” (Genentech, Inc., priority 2005, dated 2008).

Experiments:
Assay type in all cases: biochemical
DPP-7 = molecular target: T1, DPP-7 (Homo sapiens, UniProt Q9UHL4); experiment: Relative cleavage of unblocked and N-blocked Gly-Pro-AFC by DPP-7; details: protease DPP-7; unblocked vs N-blocked substrate
T1 construct: These constructs encoded amino acids 26-492 of DPP-7; FLAG (N); made in house; host or cells: 293 cells; template plasmid from Origene
Procedure: (§1) The relative cleavage rates by FAP and several dipeptidases of N-blocked (8) and unblocked (7) Gly-Pro dipeptide substrates were measured.
(§2) Protease Assays—Protease activity was monitored continuously using a SpectraMax M2 microplate reader (Molecular Devices Corp., Sunnyvale Calif.) in the kinetic mode. Assays were conducted at 23° C. in 50 mM Tris (pH 7.4), 100 mM NaCl, 1 mM EDTA. The excitation/emission wavelengths for the different fluorogenic substrates were 360/460 nm (AMC), 400/505 nm (AFC), 340/425 nm (MNA), 340/510 nm (EDANS), and 337/425 nm (Abs). Standard curves of the appropriate fluorescent product versus concentration were used to convert relative fluorescence units to nmol of product produced. Substrates in the X-Pro-AMC library were used in rate assays at 5 μM final concentration. […] The kinetic parameters were calculated from Michaelis-Menten plots (V0 versus [S]) with nonlinear regression analysis using GraphPad software. kcat values were calculated under the assumption that each protease was 100% active.

DPP-8 = molecular target: T2, DPP-8 (Homo sapiens, UniProt Q6V1X1); experiment: Relative cleavage of unblocked and N-blocked Gly-Pro-AFC by DPP-8; details: protease DPP-8; unblocked vs N-blocked substrate
T2 construct: 2-883 of DPP-8; FLAG (N); made in house; host or cells: 293 cells; template plasmid from Origene
Procedure: as §1, §2

DPP-9 = molecular target: T3, DPP-9 (Homo sapiens, UniProt Q86TI2); experiment: Relative cleavage of unblocked and N-blocked Gly-Pro-AFC by DPP-9; details: protease DPP-9; unblocked vs N-blocked substrate
T3 construct: 2-864 of DPP-9; FLAG (N); made in house; host or cells: 293 cells; template plasmid from Origene
Procedure: as §1, §2

APH = molecular target: T4, APH (Homo sapiens, UniProt P13798); experiment: Relative cleavage of unblocked and N-blocked Gly-Pro-AFC by APH; details: protease APH; unblocked vs N-blocked substrate
T4 construct: 2-732 of APH; FLAG (N); made in house; host or cells: 293 cells; template plasmid from Origene
T4 sequence (P13798 2-732): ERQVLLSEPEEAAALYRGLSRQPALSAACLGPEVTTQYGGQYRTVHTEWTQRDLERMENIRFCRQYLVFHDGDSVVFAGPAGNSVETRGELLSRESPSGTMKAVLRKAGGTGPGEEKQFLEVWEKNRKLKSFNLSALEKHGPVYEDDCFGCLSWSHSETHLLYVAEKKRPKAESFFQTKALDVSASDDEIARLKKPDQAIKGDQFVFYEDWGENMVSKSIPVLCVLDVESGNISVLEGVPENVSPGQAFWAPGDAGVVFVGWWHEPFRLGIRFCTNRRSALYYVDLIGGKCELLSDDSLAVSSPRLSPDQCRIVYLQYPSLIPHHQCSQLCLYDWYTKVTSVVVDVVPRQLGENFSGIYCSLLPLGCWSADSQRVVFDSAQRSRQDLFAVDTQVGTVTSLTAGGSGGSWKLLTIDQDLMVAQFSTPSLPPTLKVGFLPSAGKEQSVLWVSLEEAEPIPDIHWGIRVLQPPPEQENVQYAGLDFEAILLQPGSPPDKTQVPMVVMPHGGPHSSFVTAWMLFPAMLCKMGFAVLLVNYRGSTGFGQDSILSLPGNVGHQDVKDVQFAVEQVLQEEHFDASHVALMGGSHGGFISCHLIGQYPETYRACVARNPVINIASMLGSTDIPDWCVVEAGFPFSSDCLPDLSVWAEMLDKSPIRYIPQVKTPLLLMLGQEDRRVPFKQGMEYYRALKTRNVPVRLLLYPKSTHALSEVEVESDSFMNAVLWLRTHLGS
Procedure: as §1, §2

FAP = molecular target: T5, FAP (Homo sapiens, UniProt Q12884); experiment: Hydrolysis of C-terminal coumarin dipeptide substrates by FAP (kinetic constants); parameters: FAP (amino acids 38-760); FLAG (N); made in house; host or cells: 293 cells (secreted, purified from serum-free conditioned media); details: protease FAP; unblocked vs N-blocked substrate
T5 sequence (Q12884 38-760): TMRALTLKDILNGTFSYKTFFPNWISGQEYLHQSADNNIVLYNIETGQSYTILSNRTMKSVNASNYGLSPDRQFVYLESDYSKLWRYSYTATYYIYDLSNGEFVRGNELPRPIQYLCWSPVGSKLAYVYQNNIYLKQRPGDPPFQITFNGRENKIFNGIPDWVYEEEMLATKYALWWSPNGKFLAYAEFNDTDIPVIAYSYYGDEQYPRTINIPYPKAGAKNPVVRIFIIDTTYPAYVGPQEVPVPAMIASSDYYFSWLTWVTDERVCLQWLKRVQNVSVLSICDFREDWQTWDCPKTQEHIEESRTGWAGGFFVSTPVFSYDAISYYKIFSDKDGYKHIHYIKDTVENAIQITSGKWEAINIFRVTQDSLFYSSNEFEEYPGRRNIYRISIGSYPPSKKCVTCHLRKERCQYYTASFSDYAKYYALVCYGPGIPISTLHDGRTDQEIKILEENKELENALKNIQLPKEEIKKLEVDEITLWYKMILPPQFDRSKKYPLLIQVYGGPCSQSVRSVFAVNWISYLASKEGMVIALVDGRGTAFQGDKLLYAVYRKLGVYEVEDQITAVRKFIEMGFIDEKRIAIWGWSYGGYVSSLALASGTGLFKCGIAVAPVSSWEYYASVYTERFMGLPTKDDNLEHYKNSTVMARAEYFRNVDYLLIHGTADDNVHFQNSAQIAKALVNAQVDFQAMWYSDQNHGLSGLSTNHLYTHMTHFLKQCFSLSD
Procedure: as §1
(§3) The cleavage (hydrolysis) rates of various C-terminal coumarin dipeptide substrates 7-16 by FAP and DPP-4 were measured (Tables 4 and 5). The amino-terminus of the substrates was unblocked and the amino acids were varied in Table 4. The amino-terminus of the substrates was blocked and the amino acids were varied in Table 5. To extend the results obtained with the dipeptide substrate library, kinetic parameters were determined for cleavage of the unblocked dipeptide substrates by FAP (Table 4). The catalytic efficiency (kcat/Km) for substrate cleavage was greatest with Ile-Pro-AFC, followed by Ala-Pro-, Gly-Pro- and Phe-Pro-AFC, consistent with the dipeptide substrate library results (FIG. 5). […] Kinetic constants for cleavage of Ala-Pro-AFC and Gly-Pro-AFC by DPP-4 were determined (Table 4). The catalytic efficiency for Ala-Pro-AFC hydrolysis was greater than that for Gly-Pro-AFC, and consistent with the dipeptide library.
as §2
(§4) When saturating amounts of substrate could not be achieved, catalytic efficiencies (kcat/Km) were determined under pseudo-first order conditions ([S]<<the estimated Km) and fit to the following equation: Ln[St/S0]=−kobst, where St is the concentration of substrate remaining at time t, S0 is the initial substrate concentration and kobs is the apparent first order substrate cleavage constant equal to (kcat/Km) times ET, the total enzyme concentration (Copeland, R. (2000) Enzymes, A Practical Introduction to Structure, Mechanism, and Data Analysis, 2nd Ed., John Wiley and Sons, Inc, New York). The linear relationship of Ln[St/S0] versus time allows calculation of kcat/Km by dividing the slope of the plot by ET.

DPP-4 = DPP-4 (Homo sapiens, UniProt P27487); experiment: Hydrolysis of C-terminal coumarin dipeptide substrates by DPP-4 (kinetic constants); parameters: DPP-4 (amino acids 39-766); FLAG (N); made in house; host or cells: 293 cells (secreted, purified from serum-free conditioned media); details: protease DPP-4; unblocked vs N-blocked substrate
Procedure: as §1, §3, §2, §4

POP = molecular target: T6, POP (Homo sapiens, UniProt P48147); experiment: Inhibition of POP by N-blocked boroPro compounds
T6 construct: 2-710 of POP; FLAG (N); made in house; host or cells: 293 cells; template plasmid from Origene
T6 sequence (P48147 2-710): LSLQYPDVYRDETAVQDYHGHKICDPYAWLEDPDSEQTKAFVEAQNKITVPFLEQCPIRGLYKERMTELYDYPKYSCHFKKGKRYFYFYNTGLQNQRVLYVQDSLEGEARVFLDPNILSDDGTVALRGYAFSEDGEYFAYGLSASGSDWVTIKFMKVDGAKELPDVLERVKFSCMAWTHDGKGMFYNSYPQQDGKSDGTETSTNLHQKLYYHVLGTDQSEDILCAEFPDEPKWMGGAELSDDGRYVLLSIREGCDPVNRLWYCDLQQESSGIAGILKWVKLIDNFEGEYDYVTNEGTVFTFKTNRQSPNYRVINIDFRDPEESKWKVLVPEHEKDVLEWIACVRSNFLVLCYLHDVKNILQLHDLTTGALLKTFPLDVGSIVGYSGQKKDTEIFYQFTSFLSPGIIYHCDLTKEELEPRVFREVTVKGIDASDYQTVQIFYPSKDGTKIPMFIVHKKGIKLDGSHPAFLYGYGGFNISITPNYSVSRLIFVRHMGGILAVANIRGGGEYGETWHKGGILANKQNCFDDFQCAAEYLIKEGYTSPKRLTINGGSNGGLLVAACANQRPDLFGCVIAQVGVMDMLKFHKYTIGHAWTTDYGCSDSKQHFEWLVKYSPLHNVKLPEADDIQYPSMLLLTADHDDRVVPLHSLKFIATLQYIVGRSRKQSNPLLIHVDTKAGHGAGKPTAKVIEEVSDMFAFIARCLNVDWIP
Procedure: Briefly, proteases were added to a reaction mixture containing inhibitor and substrate (Ac-Ala-AMC for APH, Z-Gly-Pro-AMC for POP, and Ala-Pro-AFC for all others) in assay buffer at 23° C. Protease activity was followed continuously as described above to monitor time-dependent inhibition. Data were plotted as V0/Vi−1 versus [I], where V0 is the rate if substrate hydrolysis in the absence of inhibitor, Vi is the steady state rate of substrate hydrolysis in the presence of inhibitor and [I] is the concentration of Ac-Gly-BoroPro.
KI values for inhibition of proteases by 5 were determined using the method of progress curves. Briefly, proteases (10-100 nM) were added to a reaction mixture containing inhibitor 5 (0-10 μM) and substrate AP-AFC in assay buffer at 23° C. […] Data were plotted as V0/Vi−1 versus [I], where V0 is the rate if substrate hydrolysis in the absence of inhibitor, Vi is the steady state rate of substrate hydrolysis in the presence of inhibitor and [I] is the concentration of 5. […] Ki, the true equilibrium inhibition constant was determined according to the following relationship: Ki=Kobs/(1+[S]/Km), where [S] is the concentration of substrate used in the assay and Km is the Michaelis constant for substrate cleavage.
Plasmids encoding full-length proteases were obtained from Origene Technologies Inc., Rockville Md. […]

T3 sequence (Q86TI2 2-863 limits assumed): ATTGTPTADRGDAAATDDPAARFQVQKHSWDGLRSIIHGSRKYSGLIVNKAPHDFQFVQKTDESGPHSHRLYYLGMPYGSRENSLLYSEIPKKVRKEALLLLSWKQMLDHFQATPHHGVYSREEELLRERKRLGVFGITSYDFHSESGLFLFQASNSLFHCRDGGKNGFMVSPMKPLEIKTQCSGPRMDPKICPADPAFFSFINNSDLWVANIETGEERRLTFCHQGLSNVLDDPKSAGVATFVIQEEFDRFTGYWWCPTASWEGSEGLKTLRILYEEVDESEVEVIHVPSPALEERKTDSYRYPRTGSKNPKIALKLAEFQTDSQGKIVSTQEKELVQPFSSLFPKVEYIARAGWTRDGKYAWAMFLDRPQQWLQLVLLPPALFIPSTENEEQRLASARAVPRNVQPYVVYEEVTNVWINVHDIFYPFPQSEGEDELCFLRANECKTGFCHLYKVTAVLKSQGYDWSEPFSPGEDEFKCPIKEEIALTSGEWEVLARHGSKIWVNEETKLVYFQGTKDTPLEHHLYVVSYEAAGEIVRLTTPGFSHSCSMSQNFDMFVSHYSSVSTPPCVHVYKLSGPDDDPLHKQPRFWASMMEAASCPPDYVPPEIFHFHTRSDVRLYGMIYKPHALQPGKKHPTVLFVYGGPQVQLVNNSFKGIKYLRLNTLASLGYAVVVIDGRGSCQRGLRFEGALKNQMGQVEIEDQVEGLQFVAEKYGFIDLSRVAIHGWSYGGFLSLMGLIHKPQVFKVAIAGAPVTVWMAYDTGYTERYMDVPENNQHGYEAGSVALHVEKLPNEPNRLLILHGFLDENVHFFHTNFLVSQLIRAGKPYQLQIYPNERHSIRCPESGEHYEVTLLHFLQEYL
T2 sequence (Q6V1X1 18-898 limits assumed): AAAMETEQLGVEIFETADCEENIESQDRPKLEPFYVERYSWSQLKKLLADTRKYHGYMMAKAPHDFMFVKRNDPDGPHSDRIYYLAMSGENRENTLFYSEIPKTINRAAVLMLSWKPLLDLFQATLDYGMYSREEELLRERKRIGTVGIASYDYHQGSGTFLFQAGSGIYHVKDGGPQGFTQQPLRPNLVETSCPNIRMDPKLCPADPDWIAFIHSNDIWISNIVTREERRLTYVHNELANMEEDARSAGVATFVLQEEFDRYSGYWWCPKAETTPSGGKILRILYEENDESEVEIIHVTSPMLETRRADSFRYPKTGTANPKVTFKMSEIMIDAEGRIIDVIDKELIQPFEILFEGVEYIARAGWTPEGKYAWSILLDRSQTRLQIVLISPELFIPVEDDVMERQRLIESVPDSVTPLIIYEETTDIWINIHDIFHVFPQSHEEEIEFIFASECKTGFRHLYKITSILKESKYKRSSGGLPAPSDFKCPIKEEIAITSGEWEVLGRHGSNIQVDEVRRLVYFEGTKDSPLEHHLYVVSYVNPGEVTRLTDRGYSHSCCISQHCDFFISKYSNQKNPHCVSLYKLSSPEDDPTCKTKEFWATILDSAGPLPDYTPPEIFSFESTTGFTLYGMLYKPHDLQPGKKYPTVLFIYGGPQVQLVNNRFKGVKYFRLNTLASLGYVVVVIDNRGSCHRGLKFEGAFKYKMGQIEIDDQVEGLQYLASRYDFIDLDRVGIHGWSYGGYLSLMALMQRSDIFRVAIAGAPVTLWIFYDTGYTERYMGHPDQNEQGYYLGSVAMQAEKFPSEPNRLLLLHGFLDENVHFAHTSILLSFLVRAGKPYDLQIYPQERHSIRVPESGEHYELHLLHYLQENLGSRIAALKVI
Sequence of DPP-4 (P27487 39-766): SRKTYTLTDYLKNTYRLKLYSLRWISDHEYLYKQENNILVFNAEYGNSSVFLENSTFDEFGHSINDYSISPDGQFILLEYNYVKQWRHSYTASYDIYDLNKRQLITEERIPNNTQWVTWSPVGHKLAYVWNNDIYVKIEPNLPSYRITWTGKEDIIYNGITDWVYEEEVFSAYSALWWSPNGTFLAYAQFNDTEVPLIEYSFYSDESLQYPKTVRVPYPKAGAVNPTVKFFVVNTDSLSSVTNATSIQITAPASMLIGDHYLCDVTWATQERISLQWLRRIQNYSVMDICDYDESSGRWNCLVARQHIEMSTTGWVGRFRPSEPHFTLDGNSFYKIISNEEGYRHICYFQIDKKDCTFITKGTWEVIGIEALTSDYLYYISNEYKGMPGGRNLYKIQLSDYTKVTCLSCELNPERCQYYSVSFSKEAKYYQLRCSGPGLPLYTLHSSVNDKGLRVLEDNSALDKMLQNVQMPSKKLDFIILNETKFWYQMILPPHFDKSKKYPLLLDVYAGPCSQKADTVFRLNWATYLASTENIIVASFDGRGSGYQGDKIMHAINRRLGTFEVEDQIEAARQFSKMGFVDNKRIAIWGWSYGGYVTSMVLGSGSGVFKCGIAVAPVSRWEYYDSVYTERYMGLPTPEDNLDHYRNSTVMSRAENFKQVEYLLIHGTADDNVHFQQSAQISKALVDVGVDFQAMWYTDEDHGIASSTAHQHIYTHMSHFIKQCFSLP

Row | Relative Activity Gly-Pro-AFC 7/Ac-Gly-Pro-AFC 8 (DPP-7) | Relative Activity Gly-Pro-AFC 7/Ac-Gly-Pro-AFC 8 (DPP-8) | Relative Activity Gly-Pro-AFC 7/Ac-Gly-Pro-AFC 8 (DPP-9) | Relative Activity Gly-Pro-AFC 7/Ac-Gly-Pro-AFC 8 (APH) | Relative Activity Gly-Pro-AFC 7/Ac-Gly-Pro-AFC 8 (FAP) | Relative Activity Gly-Pro-AFC 7/Ac-Gly-Pro-AFC 8 (DPP-4) | Ki (POP) | SMILES
1 | 200 | 33 | 10,000 | no cleavage | 1.0 | 10,000 |  | NCC(=O)N1CCCC1C(=O)Nc1ccc2c(C(F)(F)F)c(CC(N)=O)c(=O)oc2c1 (stereo not drawn) [Gly-Pro-AFC 7, Gly-Pro-AFC]
2 |  |  |  |  |  |  | 63 nM | CC(C)C(=O)N(C)CC(=O)N1CCCC1B(O)O (stereo not shown) [N-isobutyryl-sarcosyl-boroPro]
